Holding throughout (assay type): functional
The test system of assay [1] is THP-1. Put plainly: Antiinflammatory activity in PMA-treated human THP1 cells assessed as LPS-induced TNFalpha secretion at 1 uM after 4 hrs by sandwich ELISA relative to control.
In assay [2] the test system is THP-1. Put plainly: Antiinflammatory activity in PMA-treated human THP1 cells assessed as LPS-induced TNFalpha secretion at 10 uM after 4 hrs by sandwich ELISA relative to control.
Assay [3] concerns THP-1. Put plainly: Antiinflammatory activity in PMA-treated human THP1 cells assessed as LPS-induced TNFalpha secretion at 0.10 uM after 4 hrs by sandwich ELISA relative to control.
Assay [4] relates to THP-1. Nature of the assay: Antiinflammatory activity in PMA-treated human THP1 cells assessed as inhibition of LPS-induced TNFalpha secretion at 10 uM after 4 hrs by sandwich ELISA relative to control. Particulars: THP-1, 4 h.
In assay [5] the test system is THP-1. Put plainly: Antiinflammatory activity in PMA-treated human THP1 cells assessed as LPS-induced TNFalpha secretion at 15 uM after 4 hrs by sandwich ELISA relative to control.
Assay [6] has as its system THP-1. Put plainly: Antiinflammatory activity in PMA-treated human THP1 cells assessed as inhibition of LPS-induced TNFalpha secretion at 1 uM after 4 hrs by sandwich ELISA relative to control. The note with it: THP-1, 4 h.
In assay [7] the test system is THP-1. Put plainly: Antiinflammatory activity in PMA-treated human THP1 cells assessed as inhibition of LPS-induced TNFalpha secretion at 15 uM after 4 hrs by sandwich ELISA relative to control. The note with it: THP-1, 4 h.
In assay [8] the test system is THP-1. Put plainly: Antiinflammatory activity in PMA-treated human THP1 cells assessed as LPS-induced TNFalpha secretion at 5 uM after 4 hrs by sandwich ELISA relative to control.
For assay [9], the system named is THP-1. Put plainly: Antiinflammatory activity in PMA-treated human THP1 cells assessed as inhibition of LPS-induced TNFalpha secretion at 0.5 uM after 4 hrs by sandwich ELISA relative to control. The note with it: THP-1, 4 h.
In assay [10] the test system is THP-1. Nature of the assay: Antiinflammatory activity in PMA-treated human THP1 cells assessed as LPS-induced TNFalpha secretion at 0.5 uM after 4 hrs by sandwich ELISA relative to control.
For assay [11], the system named is THP-1. Put plainly: Antiinflammatory activity in PMA-treated human THP1 cells assessed as inhibition of LPS-induced TNFalpha secretion at >=10 uM after 4 hrs by sandwich ELISA relative to control.

Turning to `COc1cccc2[nH]cc(C/C(=N\OS(=O)(=O)[O-])S[C@@H]3O[C@H](CO)[C@@H](O)[C@H](O)[C@H]3O)c12.[K+]`, the Activity in the assay with THP-1 [1] is listed as 187.45 pg/mg; with THP-1 [2], 146.53 pg/mg; in the assay on THP-1 [3], 214.36 pg/mg; in the assay on THP-1 [5], 135.01 pg/mg. Further, in the assay with THP-1 [4], the inhibition at 10 µM is 41%. In the assay with THP-1 [6], the inhibition at 1 µM stood at 24%. Further, in the assay with THP-1 [7], the inhibition at 15 µM was determined as 46%.
For the compound `Oc1cc(O)c2c(c1)OC(c1ccc(O)c(O)c1)C(O)C2` (centres undefined) [CATECHIN], the Activity in the assay on THP-1 [8] turned out to be 282.65 pg/mg; with THP-1 [5], 255.94 pg/mg; in the assay with THP-1 [10], 303.98 pg/mg. Besides, the inhibition at 15 µM in the assay with THP-1 [7] came out at 48%. Further, in the assay on THP-1 [9], the inhibition at 0.5 µM was determined as 37%.
As for `O=S(=O)([O-])O/N=C(\Cc1c[nH]c2ccccc12)S[C@@H]1O[C@H](CO)[C@@H](O)[C@H](O)[C@H]1O.[K+]`, the Activity amounted to 196.65 pg/mg with THP-1 [1], 158.94 pg/mg in the assay with THP-1 [2], 215.57 pg/mg in the assay on THP-1 [3] and 136.79 pg/mg with THP-1 [5]. Also, the inhibition at 1 µM with THP-1 [6] was not below 24%. In addition, in the assay on THP-1 [7], the inhibition at 15 µM is 54%.
For the compound `COn1cc(C/C(=N\OS(=O)(=O)[O-])S[C@@H]2O[C@H](CO)[C@@H](O)[C@H](O)[C@H]2O)c2ccccc21.[K+]`, the Activity is listed as 228.9 pg/mg in the assay with THP-1 [1], 181.1 pg/mg in the assay with THP-1 [2], 251.69 pg/mg in the assay with THP-1 [3] and 169.06 pg/mg in the assay with THP-1 [5]. Also, in the assay with THP-1 [6], the inhibition at 1 µM is not below 24%. Moreover, the “inhibition (INH)” value in the assay on THP-1 [11] is “>=32%”.

(Values after ChEMBL document CHEMBL3102811, “Synthesis and anti-inflammatory activity of indole glucosinolates” (2014).)
